Series [1] has as its system durch einen 15 %-igen Citronensäurespray hervorgerufenem Husten. In words: Antitussive effect, cough induced in guinea pigs by 15 % citric acid spray. The class given is in vivo, Meerschweinchen. The conditions noted are these: Cavia porcellus, po, 1 h, read-out: ED₅₀ (±S.D.). The text has this: Die hustenlindernde Wirkung wurde auch an Meerschweinchen untersucht, an denen die Dämpfung des durch einen 15 %-igen Citronensäurespray ausgelösten Hustens bestimmt wurde (I. Erdély, L. Tardos, Arzneim. Forsch. 1966, 617). Die hustenlindernden Mittel wurden eine Stunde vor der Messung oral verabreicht. Auch in diesem Test erwies sich die Verbindung Ia als starkes Hustenlinderungsmittel; ihre Wirkung übertraf die der Referenzsubstanzen (Tabelle 2). Tabelle 2

For series [2], the system named is Mäusen. In words: Acute oral toxicity in mice. To be noted: p.o.
The test system of series [3] is Mäusen. To be noted: in vivo.
Series [4] concerns durch Histamin ausgelösten Anstiegs des Widerstands der Luftwege. The series is described as follows: Inhibition of the histamine-induced rise in airway resistance in cats. The class given is in vivo, Katzen. The conditions noted are these: for Wirkungsmaximum: 3 µg/kg histamine i.v., 4 mg/kg substance intraduodenal, measured minute 10 to 120; for rel.Wirkungsstärke: relative to Theophyllin = 1,00. The text has this: Die Hemmung des durch Histamin ausgelösten Anstiegs des Widerstands der Luftwege wurde an Katzen untersucht (M.A. Wassermann, D.W. Du Charme, Prostaglandins, 1977, 255).
Minute gemessen. […] Tabelle 4

A short description of the next series: Water solubility. The class given is physicochemical.
Series [5] relates to durch elektrische Reizung des Nervus laryngeus Husten. The series is described as follows: Antitussive effect, cough induced in cats by electrical stimulation of the Nervus laryngeus. The class given is in vivo, Katzen. The conditions noted are these: for ED50: Felis catus, po, cough by electrical stimulation, p.o., p <0,001, read-out: ED₅₀ (±S.D.). The text has this: Die hustenlindernde Wirkung der Verbindung Ia wurde an Katzen untersucht, an denen durch elektrische Reizung des Nervus laryngeus Husten ausgelöst worden war (R. Domenjoz, Arch. Exp. Path. 1952, 19). Die zu untersuchenden Verbindungen wurden i.v. beziehungsweise mit Schlundsonde p.o. verabreicht. […] Tabelle 1

A short description of series [6]: Absorption after oral administration. The class given is in vivo. The conditions noted are these: without salt formation.
In series [7] the test system is Zentralnervensystem und das Herz. In words: Respiratory depression and side effects on central nervous system and heart. It counts as in vivo.
Series [8] deals with sensibilisierten Meerschweinchen. In words: Experimental asthma (anaphylaxis): airway resistance in ovalbumin-sensitised guinea pigs after intratracheal ovalbumin. It counts as in vivo. To be noted: for δ (Änderung des Beatmungswiderstands): deviation from own value after dosing. The protocol: Die Meerschweinchen wurden durch eine einmalige Gabe von 1 µg/kg Ovalbumin i.v. sensibilisiert (Andersson, Brattsand, Br. J. Pharmacol. 1982, 139) und bekamen nach 40 Tagen die zu untersuchenden Verbindungen in einer Dosis von 10 mg/kg i.v. Die narkotisierten, muskelrelaxierten und künstlich beatmeten Tiere erhielten 3 mg/kg Ovalbumin intratracheal, und zu unterschiedlichen Zeitpunkten wurde gemessen, wie stark die zu untersuchenden Verbindungen den Anstieg des Widerstandes der Luftwege zu kompensieren vermochten.
Nach Narkose Präparation und Verabreichung eines Muskelrelaxans Beatmung 1. Messung: 5 min nach Injizierung von 10 mg/kg Wirkstoff, dann intratracheale Provokation (Minute 0) 2. Messung: 3 min nach intratrachealer Provokation 3. Messung: 6 min nach intratrachealer Provokation 4. Messung: 12 min nach intratrachealer Provokation 5. Messung: 24 min nach intratrachealer Provokation.
Die Beatmung erfolgte mit positivem Druck bei einer Frequenz von 90/min und einem Volumen von 3 ml.
Die Kontrollgruppe erhielt physiologische Kochsalzlösung. Der Wert δ ist die Abweichung von dem eigenen, nach der Verabreichung der Dosis von 10 mg/kg Wirkstoff gemessenen Wert (Eigenkontrolle).

Series [9] concerns isolierten glatten Luftröhrenmuskel des Meerschweinchens. The series is described as follows: Inhibition of the constrictor effect of histamine on isolated tracheal smooth muscle. It counts as cell-based, Meerschweinchen. The conditions noted are these: against histamine, isolated guinea pig tracheal smooth muscle; for EC50: cumulative dose series, read-out: p d 2 (converted). The text has this: Am glatten Luftröhrenmuskel des Meerschweinchens ist die Wirkung der Verbindung Ia der des Theophyllins ähnlich, wenn die Wirkung gegen Histamin in einer kumulativen Dosisreihe untersucht wird (Tabelle 3). Tabelle 3

Setting [10] is: 10 mg/kg i.v., 3 min after intratracheal ovalbumin.
[11] abbreviates: 10 mg/kg i.v., 6 min after intratracheal ovalbumin.
Setting [12] is: 10 mg/kg i.v., 12 min after intratracheal ovalbumin.
Where [13] appears, read: 10 mg/kg i.v., 24 min after intratracheal ovalbumin.

Consider four compounds from EP0488079A1, “Oxadiazolylmethylpurines, their preparation, and their pharmaceutical use” (CHINOIN Gyògyszer és Vegyészeti Termékek Gyára RT., priority 1990, dated 1992).

Read-outs that look alike come from different tables or passages of the source. Bounds are passed on as bounds.

Take `COc1ccc2c(c1)[C@]13CCCC[C@@H]1[C@H](C2)N(C)CC3` [Dextromethorphan HBr]: the ED50 in [1] was 5.26 mg/kg. Also, in the series on Mäusen [2], the DL₅₀ is 165,9 mg/kg.

As to `Cc1nc(Cn2cnc3[nH]c(=O)n(C)c(=O)c32)no1` [Verbindung Ia, 1-Methyl-7-(5-methyl-1,2,4-oxadiazol-3-yl)-methyl-3,7-dihydro-3H-purin-2,6-dion], the “therapeutischer Index” value in the series with Mäusen [3] is recorded as “um mehr als eine Größenordnung besser als der der Referenzsubstanzen”. Also, in the series with Mäusen [3] (mouse, po), the DL₅₀ is given as over 2000 mg/kg. Further, the Wirkungsmaximum in [4] is 28,2. Also, the “Dauer der Wirkung” value in [4] (4 mg/kg intraduodenal, compared with Theophyllin) is “hielt längere Zeit an”. Moreover, the rel.Wirkungsstärke in series [4] (4 mg/kg intraduodenal) is 1,79. Besides, in the series “Water solubility”, the Wasserlöslichkeit result was “mäßigen Wasserlöslichkeit”. Moreover, the ED50 in [5] came to 3.74 mg/kg; in series [1] (guinea pigs, 15 % citric acid spray, one hour after p.o. administration, p <0,001), 3.04 mg/kg. Further, in [5] (i.v. and p.o.), the “hustenlindernde Wirkung” value is recorded as “bedeutende hustenlindernde Wirkung”. In addition, the “Zeitdauer der Wirkung” value in [5] (i.v. and p.o., compared with reference substances) is reported as “länger als die der Referenzsubstanzen”. In addition, the Resorption result in series [6] was “ausgezeichnet und schnell resorbiert”. Further, in [7] (in contrast to the reference substances), the “atmungsdämpfende Wirkung” value is “keine atmungsdämpfende Wirkung”. In series [7] (side effects characteristic of Theophyllin), the “unerwünschte Nebenwirkungen auf das Zentralnervensystem und das Herz” value is on record as “nicht aufweist”. Besides, the “Beatmungswiderstand R” value in [8] (setting [10]) is on record as 9,21±0,84 Pa/ml/s; in [8] (setting [11]), 9,41±0,91 Pa/ml/s; in series [8] (setting [12]) it was 10,10±0,94 Pa/ml/s; in series [8] (setting [13]), 9,92±1.11 Pa/ml/s; in [8] (nach 10 mg i.v. (5 min after injection, before intratracheal ovalbumin provocation)) it was 8,07±0,93 Pa/ml/s. Also, the “δ (Änderung des Beatmungswiderstands)” value in [8] (setting [10]) is 1,14±0,77 Pa/ml/s; in series [8] (setting [11]), 1,34±0,96 Pa/ml/s; in series [8] (setting [12]), 2,03±0,44 Pa/ml/s; in series [8] (setting [13]), 1,85±0,64 Pa/ml/s. Moreover, the EC50 in series [9] is 3.31 µM. Further, the Emax – broadly, the greatest response seen or fitted, relative to the assay's reference – in [9] was 36%.

As to `COc1ccc2c3c1O[C@H]1[C@@H](O)C=C[C@H]4[C@@H](C2)N(C)CC[C@@]341.Cl` [Codeïn HCl], the ED50 in [5] worked out at 4.33 mg/kg; in [1], 12.8 mg/kg. For the same compound, in the series on Mäusen [2], the DL₅₀ is given as 359,2 mg/kg.

Take `Cn1c(=O)c2[nH]cnc2n(C)c1=O` [Theophyllin, reference compound]: the Wirkungsmaximum in series [4] was 15,7. For the same compound, the rel.Wirkungsstärke in [4] (4 mg/kg intraduodenal) is 1,00. Also, in series [9], the EC50 was 4.17 µM and the Emax came out at 44%.
